# From patent publication US20240343706A1, “PIPERIDINE-2,6-DIONE DERIVATIVES WHICH BIND TO CEREBLON, AND METHODS OF USE THEREOF” (Captor Therapeutics S.A., priority 2019, published 2024)
# What was measured:
# IKZF1 = IKZF1 degradation assay, H929 cell line (western blot densitometry); format: cell-based; details: H929 cells; for % of IKZF1 α protein reduction based on densitometry values: 24 h; for % of protein reduction based on densitometry values, IKZF 1 (24 H): summary Table 10, 20 μM (some compounds 10 and 20 μM)
# From the text: (§1) After primary and secondary Ab staining, the membranes were washed and signals developed. The densitometry analysis was implemented to obtain the numeric values used later in the protein level evaluation process.
# IKZF3 = IKZF3 degradation assay, H929 cell line (western blot densitometry); format: cell-based; details: H929 cells; for % of IKZF3 protein reduction based on densitometry values, IKZF3 Band I / % of IKZF3 protein reduction based on densitometry values, IKZF3 Band II: 24 h; for % of protein reduction based on densitometry values, IKZF3 (24 H): summary Table 10, 10 and 20 μM
# [1] = molecular target: CRBN-DDB1 protein complex (Homo sapiens, UniProt Q96SW2); assay: Fluorescence polarization (FP) assay, displacement of Cy5-labelled thalidomide; details: 25 nM CRBN-DDB1, 5 nM Cy5-labelled thalidomide, read-out: CRBN binding Ki
# Description: CRBN-DDB1 protein complex was mixed with Cy5-labelled thalidomide and a compound to be tested (the “test compound”). […] The test solution was added to a 384-well assay plate.
# The plate was spun-down (1 min, 1000 rpm, 22° C.) and then shaken using a VibroTurbulator for 10 min at room temperature (20-25° C.), with the frequency set to level 3. The assay plate with protein and the tracer was incubated for 60 min at room temperature (20-25° C.) prior to read-out with a plate reader.
# The FP experiment was carried out with various concentrations of the test compounds in order to measure Ki values.
# CK1α = CK1α degradation assay, Kelly cell line (western blot densitometry); format: cell-based; details: Kelly cells; for % of CK1α protein reduction, based on densitometry values: 24 h; for % of protein reduction based on densitometry values, CK1α (24 H): summary Table 10, 20 μM (some compounds 10 and 20 μM)
# From the text: as §1
# SALL4 = SALL4 degradation assay, Kelly cell line (western blot densitometry); format: cell-based; details: Kelly cells; for % of SALL4 protein reduction, based on densitometry values: 24 h; for % of protein reduction based on densitometry values, SALL4 (24 H): summary Table 10, 20 μM (some compounds 10 and 20 μM)
# From the text: as §1
# Sequence of CRBN-DDB1 protein complex (Q96SW2 whole entry): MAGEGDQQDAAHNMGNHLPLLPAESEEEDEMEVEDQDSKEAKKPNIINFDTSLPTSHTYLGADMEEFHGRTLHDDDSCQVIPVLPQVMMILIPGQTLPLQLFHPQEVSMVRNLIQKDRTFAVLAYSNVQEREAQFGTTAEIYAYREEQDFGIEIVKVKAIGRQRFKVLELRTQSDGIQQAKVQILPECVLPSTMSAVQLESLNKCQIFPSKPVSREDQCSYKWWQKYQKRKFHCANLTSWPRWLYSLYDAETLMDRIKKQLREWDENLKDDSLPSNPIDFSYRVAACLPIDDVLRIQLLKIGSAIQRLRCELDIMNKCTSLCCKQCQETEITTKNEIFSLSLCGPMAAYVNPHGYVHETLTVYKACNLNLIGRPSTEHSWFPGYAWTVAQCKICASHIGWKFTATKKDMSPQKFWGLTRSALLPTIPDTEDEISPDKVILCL
# Sequence of CRBN-DDB1 protein complex (Q16531 whole entry partner): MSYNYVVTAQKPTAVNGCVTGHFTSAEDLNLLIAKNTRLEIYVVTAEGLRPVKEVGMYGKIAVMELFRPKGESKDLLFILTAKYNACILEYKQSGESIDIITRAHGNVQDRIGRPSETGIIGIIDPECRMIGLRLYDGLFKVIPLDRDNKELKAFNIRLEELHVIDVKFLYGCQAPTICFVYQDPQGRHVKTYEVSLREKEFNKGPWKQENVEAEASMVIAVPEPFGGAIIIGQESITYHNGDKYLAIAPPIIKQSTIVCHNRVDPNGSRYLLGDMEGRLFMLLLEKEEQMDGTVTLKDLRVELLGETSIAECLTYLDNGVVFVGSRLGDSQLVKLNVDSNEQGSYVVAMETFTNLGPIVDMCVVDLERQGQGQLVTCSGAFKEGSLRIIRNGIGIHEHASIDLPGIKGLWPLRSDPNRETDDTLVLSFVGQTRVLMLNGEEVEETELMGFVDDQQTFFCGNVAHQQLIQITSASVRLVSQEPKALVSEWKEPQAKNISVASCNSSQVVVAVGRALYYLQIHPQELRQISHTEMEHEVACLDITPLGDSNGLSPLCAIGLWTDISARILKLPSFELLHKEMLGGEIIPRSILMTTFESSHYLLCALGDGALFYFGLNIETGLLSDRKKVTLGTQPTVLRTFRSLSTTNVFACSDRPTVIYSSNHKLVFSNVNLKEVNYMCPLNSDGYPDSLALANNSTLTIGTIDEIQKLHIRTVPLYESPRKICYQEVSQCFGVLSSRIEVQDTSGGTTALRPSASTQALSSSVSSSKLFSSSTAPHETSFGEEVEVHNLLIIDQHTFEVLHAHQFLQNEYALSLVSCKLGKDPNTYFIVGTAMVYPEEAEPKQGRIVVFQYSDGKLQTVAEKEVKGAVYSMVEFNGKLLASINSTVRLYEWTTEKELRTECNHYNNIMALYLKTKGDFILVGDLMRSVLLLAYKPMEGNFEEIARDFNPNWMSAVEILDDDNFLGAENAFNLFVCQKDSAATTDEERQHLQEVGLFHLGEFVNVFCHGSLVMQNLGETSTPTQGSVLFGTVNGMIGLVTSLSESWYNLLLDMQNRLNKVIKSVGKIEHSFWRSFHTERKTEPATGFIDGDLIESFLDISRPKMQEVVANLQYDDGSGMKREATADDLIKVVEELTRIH
Ki [1] [µM],SMILES,% of IKZF1 α protein reduction based on densitometry values (IKZF1; 10 μM),% of IKZF1 α protein reduction based on densitometry values (IKZF1; 20 μM),"% of protein reduction based on densitometry values, IKZF 1 (24 H) (IKZF1)","% of IKZF3 protein reduction based on densitometry values, IKZF3 Band I (IKZF3; 10 μM)","% of IKZF3 protein reduction based on densitometry values, IKZF3 Band II (IKZF3; 10 μM)","% of IKZF3 protein reduction based on densitometry values, IKZF3 Band I (IKZF3; 20 μM)","% of IKZF3 protein reduction based on densitometry values, IKZF3 Band II (IKZF3; 20 μM)","% of protein reduction based on densitometry values, IKZF3 (24 H) (IKZF3)","% of CK1α protein reduction, based on densitometry values (CK1α; 10 μM)","% of CK1α protein reduction, based on densitometry values (CK1α; 20 μM)","% of protein reduction based on densitometry values, CK1α (24 H) (CK1α)","% of SALL4 protein reduction, based on densitometry values (SALL4; 10 μM)","% of SALL4 protein reduction, based on densitometry values (SALL4; 20 μM)","% of protein reduction based on densitometry values, SALL4 (24 H) (SALL4)"
1 to 10,"O=C1CCC(NC(=O)c2cccc3cnsc23)C(=O)N1 (stereo not drawn) [Compound 50, N-(2,6-dioxopiperidin-3-yl)benzo[d]isothiazole-7-carboxamide]",≤25% (≤25% for 0-25% of IKZF1 protein reduction),≤25% (≤25% for 0-25% of IKZF1 protein reduction),≤25% (≤25% for 0-25% of IKZF1 protein reduction),≤25% (≤25% for 0-25% of IKZF3 protein reduction),≤25% (≤25% for 0-25% of IKZF3 protein reduction),≤25% (≤25% for 0-25% of IKZF3 protein reduction),≤25% (≤25% for 0-25% of IKZF3 protein reduction),≤25% (≤25% for 0-25% of IKZF3 protein reduction),≤25% (≤25% for 0-25% of CK1a protein reduction),≤25% (≤25% for 0-25% of CK1a protein reduction),≤25% (≤25% for 0-25% of CK1a protein reduction),≤25% (≤25% for 0-25% of SALL4 protein reduction),≤25% (≤25% for 0-25% of SALL4 protein reduction),≤25% (≤25% for 0-25% of SALL4 protein reduction)
1 to 10,"Cc1nc2c(C(=O)NC3CCC(=O)NC3=O)cncc2[nH]1 (stereo not drawn) [Compound 35, N-(2,6-dioxopiperidin-3-yl)-2-methyl-3H-imidazo[4,5-c]pyridine-7-carboxamide]",≤25% (≤25% for 0-25% of IKZF1 protein reduction),≤25% (≤25% for 0-25% of IKZF1 protein reduction),≤25% (≤25% for 0-25% of IKZF1 protein reduction),≤25% (≤25% for 0-25% of IKZF3 protein reduction),≤25% (≤25% for 0-25% of IKZF3 protein reduction),≤25% (≤25% for 0-25% of IKZF3 protein reduction),≤25% (≤25% for 0-25% of IKZF3 protein reduction),≤25% (≤25% for 0-25% of IKZF3 protein reduction),≤25% (≤25% for 0-25% of CK1a protein reduction),≤25% (≤25% for 0-25% of CK1a protein reduction),≤25% (≤25% for 0-25% of CK1a protein reduction),≤25% (≤25% for 0-25% of SALL4 protein reduction),≤25% (≤25% for 0-25% of SALL4 protein reduction),≤25% (≤25% for 0-25% of SALL4 protein reduction)
< 1,"COc1cc(C(=O)NC2CCC(=O)NC2=O)c2nc(C)[nH]c2c1 (stereo not drawn) [Compound 30, N-(2,6-dioxopiperidin-3-yl)-6-methoxy-2-methyl-1H-benzo[d]imidazole-4-carboxamide]",,,≤25% (≤25% for 0-25% of IKZF1 protein reduction),≤25% (≤25% for 0-25% of IKZF3 protein reduction),≤25% (≤25% for 0-25% of IKZF3 protein reduction),≤25% (≤25% for 0-25% of IKZF3 protein reduction),≤25% (≤25% for 0-25% of IKZF3 protein reduction),≤25% (≤25% for 0-25% of IKZF3 protein reduction),,,≤25% (≤25% for 0-25% of CK1a protein reduction),,,≤25% (≤25% for 0-25% of SALL4 protein reduction)
